# According to article PMC10914731, “Homo-BacPROTAC-induced degradation of ClpC1 as a strategy against drug-resistant mycobacteria” (Nature Communications, 2024):
# Where “and” joins values, the source holds several entries; their conditions need not be identical. Equal values may be shown once. Read-outs that look alike come from different tables or passages of the source. *1 amine or outer side, *2 acyl side, *3 side chain or, on linkers, in order; H or OH if unused. Where a SMILES comes first, the peptide text is derived from it. [ ]: non-standard residue; d: D form. X1 = C#CCn1cc(C[C@H](N[*:1])C(=O)[*:2])c2ccccc21; NMeLeu(5-OH,4R) = CN[C@@H](C[C@@H](C)CO)C(=O)O; Phe(βR-OMe) = CO[C@H](c1ccccc1)[C@H](N)C(=O)O; NMeL = CN[C@@H](CC(C)C)C(=O)O
# What was measured:
# [1] = target: ClpC1 NTD protein (M. tuberculosis) (Mycobacterium tuberculosis, UniProt P9WPC9); experiment: biochemical; type: binding; details: SPR
# [2] = type: in vitro ADME, Rat
# Method in brief: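 Clearance values are expressed as % of liver blood flow, derived from first-order half-lives using the well-stirred liver model. Depletion of 1 µmol/l compound is followed by HPLC-MS/MS in NADPH-supplemented microsomes (0.5 mg/ml) at 37 °C, pH 7.5.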
# [3] = tested on: M. tuberculosis H37Rv (ATCC 27294); experiment: microbe, parasite or virus in culture; type: cell-based
# Msm 607 = experiment: microbe, parasite or virus in culture; type: cell-based
# [4] = tested on: Mtb (katG del) ATCC 35822; experiment: microbe, parasite or virus in culture; type: cell-based; details: Mycobacterium tuberculosis
# Acinetobacter baumannii = experiment: MIC ESKAPES panel, Acinetobacter baumannii; type: cell-based
# Method: (§1) Minimum inhibitory concentration (MIC) against ESKAPES panel of Gram positive and Gram negative pathogens (Enterococcus faecium, Staphylococcus aureus, Klebsiella pneumoniae, Acinetobacter baumannii, Pseudomonas aeruginosa, Enterobacter cloacae and Salmonella typhimurium [ESKAPES panel]) were determined at the FNDR by the standard broth dilution method [CLSI, M100]. […] Mueller Hinton broth (MHB) medium was used to grow ESKAPES panel strains. The individual cultures were added as 200 μL (inoculum of 3–7 × 10^5 cfu/ml) to the respective assay plates in each well to all columns, except the media control (200 μL of medium). […] The assay plates were incubated at 37 °C, and the results were noted on the 2nd day as turbidometric readout. The clear wells indicated inhibition of growth, while the turbid wells indicated uninhibited growth.
# Salmonella typhimurium = experiment: MIC ESKAPES panel, Salmonella typhimurium; type: cell-based
# Method: as §1
# [5] = tested on: Mtb H37Rv in THP-1 macrophages; experiment: Intracellular MIC assay in THP-1 macrophages; type: cell-based, Mycobacterium tuberculosis; design: Emax: unit not given here
# in vivo = type: in vivo, BALB/cAnNCrl mice
# Method: The in-life experimental procedures were conducted in strict compliance with German and European animal welfare legislation in an AAALAC-accredited facility. Male BALB/cAnNCrl mice (Charles River Laboratories Research Models and Services, 97633 Sulzfeld, Germany) were used. Animals were 9 weeks old at dosing with a body weight of 21.6–24.3 g. Animals were delivered free of pathogens according to FELASA recommendations with a health certificate provided by the breeder. Upon receipt, the state of health and sex was checked. Animals acclimatized for at least 5 days before the commencement of the in-life phase. During acclimation, animals were group-housed in individually ventilated cages, on birch wood granulate bedding with species-specific enrichment (nesting material, mouse igloo, gnawing wood). During experimental conduct, animals were housed in conventional cages with elevated grid floors. Grid floor was used to avoid contamination with test item material excreted via urine and feces and subsequent reuptake during fur grooming. No bedding and enrichment were provided except a cage divider, which can be used as a shelter. Animals always had unlimited access to food and water and received a pelleted, total pathogen-free maintenance diet and tap drinking water, sterilized by filter.
# On the day before dosing, test item(s) were suspended in kleptose (20% in WFI) under continuous stirring (3.0 mg/ml). Following 2 min vortexing and 1 h stirring, the formulation was sonicated at 60 °C for 30 min and stirred at ambient temperature overnight. Before dosing, the formulation was vortexed for 2 min followed by ultraturrax treatment for 2 min.
# Male BALB/cAnNCrl mice (n = 3 per test item and administration route) received a bolus dose of the formulated test item(s) (1 mg/kg iv, 30 mg/kg po) at t = 0 h, and whole blood samples were collected subsequently (35 µl at 0.1 (iv) / 0.25 (po), 0.5, 1, 2, 4, 6 h; 600 µl at sacrifice after 24 h). Animals were euthanized by exsanguination in deep isoflurane anesthesia. Whole blood samples were immediately stored on ice at about 4 °C. Plasma was separated by centrifugation at approximately 10,000 × g for 5 m at +4 °C. Centrifugation of each blood sample was started within 10 m after collection. A single aliquot of at least 15 µL of plasma was prepared and immediately stored at −20 ± 5 °C.
# Sample proteins were precipitated with ACN (1 + 12, v/v) containing internal standard, and supernatants analyzed by quantitative UPLC-MS/MS: Phenomenex Luna Omega C18, 2.1 × 50 mm, 1.6 µm, 40 °C, gradient between 10% - 90% ACN with 0.1% formic acid. LogD determination: Lipophilicity of the test items, expressed as chromLogD7.5, was assessed by measuring their chromatographic retention times on C18-material. The chromatographic retention versus logD7.5 values of a series of thirteen n-alkan-2-ones (2-butanone – 2-hexadecanone) served as lipophilicity calibration.
# [6] = oral gavage 30 mg/kg, mice, Mean, BLOQ <1.00 nmol/L
# [7] = oral gavage, individual animals 1-3
# [8] = oral gavage, individual animals 1-3, BLOQ <1.00 nmol/L
# Chain of ClpC1 NTD protein (M. tuberculosis) (P9WPC9 1-156, looked up, natural form): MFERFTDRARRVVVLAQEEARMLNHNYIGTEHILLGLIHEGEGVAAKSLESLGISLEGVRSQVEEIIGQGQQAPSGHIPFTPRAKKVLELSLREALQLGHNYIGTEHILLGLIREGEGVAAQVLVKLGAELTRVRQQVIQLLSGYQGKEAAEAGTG
structure (smiles),measurement,setting,value
"C#CCn1cc(C[C@@H]2NC(=O)[C@H](C(C)C)NC(=O)[C@H](CC(C)C)N(C)C(=O)[C@H](C(C)C)NC(=O)[C@H]([C@H](OC)c3ccccc3)NC(=O)[C@H](C)NC(=O)[C@H](C[C@@H](C)CO)N(C)C2=O)c2ccccc21 [Compound 5] (cyclo(A[Phe(βR-OMe)]V[NMeL]V[X1][NMeLeu(5-OH,4R)]))",Kd,"[1]; individual measurements (source data), read-out: KD ClpC1-NTD",3.63 nM and 3.45 nM
same,koff ClpC1-NTD,[1]; single independent measurements,0.04 s⁻¹
same,koff,"[1]; single independent measurements, read-out: koff ClpC1-NTD",0.02 s⁻¹
same,Kd,[1]; read-out: ClpC1-NTD KD Mean ± SD,3.5 ± 0.1 nM
same,Microsomal Stability Rat QH,[2]; Rat,>87.900%
same,Microsomal Stability Rat,[2]; clearance in microsomes,> 88 %Qh
same,MIC,"[3]; M. tuberculosis H37Rv 27294, single well replicates, read-out: MIC",3.125 µM (2×) and 1.56 µM
same,MIC,"[3]; Mycobacterium tuberculosis, M. tuberculosis H37Rv strain, read-out: MIC Mtb H37Rv Mean ± SD",1.6 µM
same,MIC,"[3]; Mycobacterium tuberculosis, Mtb H37Rv (Supplementary Table 2), read-out: MIC Mtb",1.6 µM
same,MIC,"[3]; Mycobacterium tuberculosis, Mtb H37Rv, mean ± SD, n = 3 well replicates, read-out: MIC",2.6 ± 0.9 µM
same,MIC,"[3]; Mycobacterium tuberculosis, Set 1, read-out: MIC (Mtb H37Rv) Set 1",1.56 µM and 1.47 µg/mL
same,MIC,"[3]; Mycobacterium tuberculosis, Set 2, read-out: MIC (Mtb H37Rv) Set 2",1.56 µM and 1.47 µg/mL
same,MIC,"[3]; Mycobacterium tuberculosis, Set 3, done at a different day than Set 1 and Set 2, read-out: MIC (Mtb H37Rv) Set 3",1.56 µM and 1.47 µg/mL
same,MIC,"[3]; Mycobacterium tuberculosis, individual example (Supplementary Table 11), read-out: MIC Mtb H37Rv",1.6 µM and 1.5 µg/mL
same,MIC,"[3]; Mycobacterium tuberculosis, individual measurements (source data), read-out: Mtb MIC",1.56 µM
same,MIC,"[3]; Mycobacterium tuberculosis, mean of 3 experiments +/- SD, unit taken from the sets above in the same table, read-out: MIC data (Mtb H37Rv) (+/- SD)",1.56 µM and 1.47 µg/mL
same,MIC,"[3]; Mycobacterium tuberculosis, single determinations, read-out: Mtb MIC",1.56 µM
same,MIC,"Msm 607; Mycolicibacterium smegmatis, 607, read-out: MIC Msm 607",25 µM
same,MIC,"Msm 607; Mycolicibacterium smegmatis, 607, read-out: MIC Msm #607, individual example (Supplementary Table 11)",25 µM and 23.5 µg/mL
same,MIC,"Msm 607; Mycolicibacterium smegmatis, 607, read-out: Msm 607 MIC, single determinations",25 µM
same,MIC,"Msm 607; Mycolicibacterium smegmatis, ATCC607, Set-1, read-out: MIC (Msm ATCC607) Set-1",12.5 µM and 11.8 µg/mL
same,MIC,"Msm 607; Mycolicibacterium smegmatis, ATCC607, Set-2, read-out: MIC (Msm ATCC607) Set-2",25 µM and 23.5 µg/mL
same,MIC,"Msm 607; Mycolicibacterium smegmatis, ATCC607, Set-3, done at a different day than Set 1 and Set 2, read-out: MIC (Msm ATCC607) Set-3",12.5 µM and 11.8 µg/mL
same,MIC,"Msm 607; Mycolicibacterium smegmatis, ATCC607, mean of 3 experiments ± SD, read-out: MIC including standard deviations (Msm ATCC607)",16.6 µM and 15.7 µg/mL
same,MIC,"[4]; ATCC35822, M. tuberculosis ATCC 35822, single well replicates",0.781 µM
same,MIC,"[4]; ATCC35822, Mtb (katG del) ATCC 35822, mean ± SD, n = 3 well replicates",0.8 µM
same,MIC,"Acinetobacter baumannii; Gram negative, n = 3 well replicates, read-out: MIC Acinetobacter baumanii",> 50 µM
same,MIC,"Acinetobacter baumannii; Gram-Negative Bacteria, replicates 1-3, read-out: MIC Acinetobacter baumannii",> 50 µM and > 47 µg/mL
same,MIC,"Salmonella typhimurium; Gram-Negative Bacteria, replicates 1-3",>50 µM
same,MIC,"Salmonella typhimurium; Salmonella enterica, TYPHIMURIUM, Gram negative, n = 3 well replicates",> 50 µM
same,MIC,"Salmonella typhimurium; Salmonella enterica, TYPHIMURIUM, Gram-Negative Bacteria, replicates 1-3",> 47 µg/mL
same,Emax,[5],1.14
same,intracellular viable mycobacteria,"[5]; 0.195µM, Day 4, well replicates",5.51 log10 cfu/ml
same,intracellular viable mycobacteria,"[5]; 0.195µM, Day 7, well replicates",5.68 log10 cfu/ml
same,intracellular viable mycobacteria,"[5]; 0.781µM, Day 4, well replicates",4.46 log10 cfu/ml and 4.51 log10 cfu/ml
same,intracellular viable mycobacteria,"[5]; 3.125µM, Day 4, well replicates",4.19 log10 cfu/ml and 4.2 log10 cfu/ml
same,intracellular viable mycobacteria,"[5]; 3.125µM, Day 7, well replicates",4.96 log10 cfu/ml
same,half-life,"in vivo; male, BALB/cAnNCrl, mouse, in vivo, po, […], oral gavage, individual animals 1-3",36.5 min
same,tmax,"in vivo; male, BALB/cAnNCrl, mouse, in vivo, po, […], oral gavage, individual animals 1-3, read-out: tmax",60 min
same,half-life,"in vivo; male, BALB/cAnNCrl, mouse, in vivo, po, […], oral gavage, mice, Mean",34.7 min
same,tmax,"in vivo; male, BALB/cAnNCrl, mouse, in vivo, po, […], oral gavage, mice, Mean, read-out: tmax",100 min
same,Plasma concentration 24 h,"in vivo; mouse, in vivo, po",BLOQ
same,Plasma concentration 0.5 h,in vivo; [6],11.7 nM
same,Plasma concentration 1 h,in vivo; [6],15.5 nM
same,Plasma concentration 2 h,in vivo; [6],18.0 nM
same,Plasma concentration 4 h,in vivo; [6],1.62 nM
same,Plasma concentration 6 h,in vivo; [6],1.76 nM
same,Plasma concentration 24 h,in vivo; [6],4.22 nM
same,Plasma concentration […],in vivo; [6],12.2 nM
same,AUC0-inf/Dose,in vivo; [7],3.14 h*nM/nmol/kg and 1.57 h*nM/nmol/kg and 1.80 h*nM/nmol/kg
same,AUC0-t/Dose,in vivo; [7],3.02 h*nM/nmol/kg and 1.53 h*nM/nmol/kg and 1.74 h*nM/nmol/kg
same,Cmax/Dose,in vivo; [7],0.480 nM/nmol/kg and 0.558 nM/nmol/kg and 0.684 nM/nmol/kg
same,t1/2,in vivo; [7],34.6 min and 33.1 min
same,tmax,in vivo; [7],120 min
same,Plasma concentration 0.5 h,in vivo; [8],13.0 nM and 10.7 nM and 11.4 nM
same,Plasma concentration 1 h,in vivo; [8],15.3 nM and 15.7 nM and 15.5 nM
same,Plasma concentration 2 h,in vivo; [8],14.5 nM and 17.8 nM and 21.8 nM
same,Plasma concentration 4 h,in vivo; [8],1.49 nM and 1.61 nM and 1.76 nM
same,Plasma concentration 6 h,in vivo; [8],1.54 nM and 1.59 nM and 2.14 nM
same,Plasma concentration 24 h,in vivo; [8],4.22 nM
same,Plasma concentration […],in vivo; [8],14.2 nM and 11.7 nM and 10.6 nM
same,BA,"in vivo; oral gavage, mice (compound 12: from Animal 2 only; compound 6: maximum potential value)",1.2%
same,AUC0-inf/Dose,"in vivo; oral gavage, mice, Mean",2.17 h*nM/nmol/kg
same,Cmax/Dose,"in vivo; oral gavage, mice, Mean",0.574 nM/nmol/kg
same,AUC0-t/Dose,"in vivo; oral gavage, mice, Mean (compound 6: maximum potential value with 1 nM for each time point)",2.10 h*nM/nmol/kg
